From patent US20130324520A1, “RXRG MODULATORS FOR THE TREATMENT OF CANCER” (SLOAN-KETTERING INSTITUTE FOR CANCER RESEARCH, priority 2011, published 2013)
Entries after “also recorded” stand apart in the source; their conditions may differ.

Tests used:
PC931019 [1] = test: Drug treatment on cancer cell lines, cell counting; assay type: cell-based; conditions: for growth inhibition, single agent / effect of combination with HX531 on growth: day 9; for growth inhibition, single agent: 6 uM HX531, 10 uM PD98059, 100 nM PD0325901; for effect of combination with HX531 on growth: MEK inhibitor plus 6 uM HX531; for cell growth: KRAS mutated pancreatic cancer (PC1019)
Source text: (§1) DMSO was used for control.

A549 = test: Drug treatment on cancer cell lines, cell counting; assay type: cell-based; conditions: for effect of combination with HX531 on growth: MEK inhibitor plus HX531; for growth inhibition, single agent: day 3, 6 uM HX531, 10 uM PD98059, 100 nM PD0325901
Source text: as §1

HCT116 = test: Drug treatment on cancer cell lines, cell counting; assay type: cell-based; conditions: day 3; for growth inhibition, single agent: 6 uM HX531, 10 uM PD98059, 100 nM PD0325901; for effect of combination with HX531 on growth: MEK inhibitor plus 6 uM HX531
Source text: as §1

[2] = patients; cited from earlier work
[3] = tested on: RB1 mutated retinoblastoma; test: RXRG ligands on retinoblastoma cell growth; assay type: cell-based
Procedure: (§2) Colon, lung, pancreatic cancer, retinoblastoma and other cell lines were cultured in culture medium consisting of IMDM (Medium Lab, MSKCC, NY) with 10% FBS (SH3008803, HyClone, Thermo Scientific), 2 mM glutamine (Invitrogen), 55 μM beta-mercaptoethanol (Invitrogen), 1% Penicillin/streptomycin (Invitrogen), and 2.5 μg/ml Plasmocin (Invivogen), at 37° C. in a humidified incubator with 5% CO2. Melanoma cell lines were culture in RPMI with above additives.
(§3) Colon, lung, pancreatic, breast, prostate cancer cell lines and other cancer cell lines were cultured in 10 cm dishes or 24 well plates with complete IMDM or RPMI (for melanoma) with 30-50% confluence. […] DMSO was used for control. After 3-6 days treatment, cells were collected and counted with trypan blue. Dose-effectiveness curves were generated with series dilution of compounds in medium for treatment of cells.

RB177 = test: RXRG ligands on retinoblastoma cell growth; assay type: cell-based
Procedure: as §2, §3

H1975 [4] = test: Drug treatment on cancer cell lines, cell counting; assay type: cell-based; conditions: EGFR mutated lung cancer
Source text: as §1

PC941102 = test: Drug treatment on cancer cell lines, cell counting; assay type: cell-based; conditions: KRAS mutated pancreatic cancer (PC1102)
Source text: as §1

H3255 = test: Drug treatment on cancer cell lines, cell counting; assay type: cell-based; conditions: EGFR mutated lung cancer
Source text: as §1

H820 = test: Drug treatment on cancer cell lines, cell counting; assay type: cell-based; conditions: EGFR mutated lung cancer
Source text: as §1

H1650 = test: Drug treatment on cancer cell lines, cell counting; assay type: cell-based; conditions: EGFR mutated lung cancer
Source text: as §1

PC930201 = test: Drug treatment on cancer cell lines, cell counting; assay type: cell-based; conditions: KRAS mutated pancreatic cancer (PC0201)
Source text: as §1

[5] = tested on: EGFR and KRAS activated NSCLC, pancreatic, and colon cancers; test: Drug treatment on cancer cell lines, cell counting (group of lines); assay type: cell-based; conditions: for cell growth / proliferation: KRAS or EGFR mutant colon, NSCLC, pancreatic, hepatoma cells, concentration not given
Source text: as §1

[6] = tested on: PTEN mutated prostate cancer, small cell lung cancer, and breast cancer; test: as above; assay type: cell-based; conditions: PTEN mutant lines as a group
Source text: as §1

H1975 [7] = test: Cell cycle analysis; assay type: cell-based; conditions: EGFR mutant NSCLC, day 3
normal fibroblasts WI38 = test: Drug treatment on cell lines, cell counting; assay type: cell-based; conditions: UVI3003 10 uM (FIG. 23)
Source text: as §1

MDA-MB-468 = test: Drug treatment on cancer cell lines, cell counting; assay type: cell-based; conditions: UVI3003 10 uM (FIG. 23)
Source text: as §1

Saos2 = test: Drug treatment on cancer cell lines, cell counting; assay type: cell-based; conditions: UVI3003 10 uM (FIG. 23)
Source text: as §1

H1755 = test: Drug treatment on cancer cell lines, cell counting; assay type: cell-based; conditions: UVI3003 10 uM (FIG. 23)
Source text: as §1

PC931019 [8] = test: Cell cycle analysis; assay type: cell-based; conditions: KRAS mutant pancreatic cancer, day 3
Procedure: After drug treatment, cells were collected for cell cycle analysis, RNA isolation, quantitative PCR, western blot, and immunofluorescence. For cell cycle analysis, retinoblastoma, neuroblastoma, lung, pancreatic, and colon cancer cells were collected and dissociated on days 3, 5, 7, 9, 11, and 16 after treatment. Cells were fixed by 70% cold ethanol alcohol while vortex, and put in −20° C. for storage. […] At 24 hours after treatment, 4 ug/ml Aphidicolin was added to cells with compounds for 24 hr. Aphidicolin was removed by centrifugation and PBS wash, and then added to new wells with fresh medium and compounds. Cells were collected and fixed before addition of aphidicolin, immediately after removal of aphidicolin, and every two hours thereafter until 16-18 hours.
The tubes with cells were taken out of the freezer and alcohol was removed by centrifugation. 150 ul of 0.06 mg/ml propidium iodide with 0.1% NF40 was added to the cells, and then 100 ul of 2 mg/ml of RNase was added to the cells. These were mixed well and incubated at 37° C. for 30 min. The cell ploidy according to DNA contents were measured in FACSCalibur with FL3-Width and FL3-Height as the parameter. Flowjo was used for analysis of the cell cycle changes.

SCLC = test: Drug treatment on cancer cell lines, cell counting (group of lines); assay type: cell-based; conditions: UVI3003 10 uM (FIG. 23); some PTEN mutated SCLC
Source text: as §1

SMILES | growth inhibition, single agent (PC931019 [1]) | effect of combination with HX531 on growth (PC931019 [1]) | effect of combination with HX531 on growth (A549) | growth inhibition, single agent (A549) | growth inhibition, single agent (HCT116) | effect of combination with HX531 on growth (HCT116) | cell growth (H1975 [4]) | cell growth (PC931019 [1]) | cell growth (PC941102) | cell growth (H3255) | cell growth (H820) | cell growth (H1650) | cell growth (PC930201) | cell growth / proliferation [5] | cell growth [6] | also measured
O=C(NOC[C@H](O)CO)c1ccc(F)c(F)c1Nc1ccc(I)cc1F [PD0325901] | growth inhibition | same synergistic effects | synergistic effects | moderate growth inhibition | moderate growth inhibition | Synergistic effects | – | – | – | – | – | – | – | – | – | outcome of clinical trial (toxicity) [2]: terminated because of high toxicity in patients
CC1=C(/C=C/C(C)=C\C=C\C(C)=C\C(=O)O)C(C)(C)CCC1 [9 cis RA, 9-cis-Retinoic acid] | – | – | – | – | – | – | – | – | – | – | – | – | – | – | – | retinoblastoma cell growth ([3]; in vitro): suppressed retinoblastoma cell growth; cell growth (RB177): suppressed cell growth
CCCCCCOc1cc2c(cc1N(C)c1ncc(C(=O)O)cn1)C(C)(C)CCC2(C)C [PA452] | – | – | – | – | – | – | sensitive | sensitive | sensitive | sensitive | sensitive | sensitive | sensitive | efficiently suppress | suppress the growth | –
COc1cccc(-c2cc(=O)c3ccccc3o2)c1N [PD98059] | growth inhibition | same synergistic effects | synergistic effects | moderate growth inhibition | moderate growth inhibition | Synergistic effects | – | – | – | – | – | – | – | – | – | –
CCCCCOc1cc2c(cc1-c1cc(/C=C/C(=O)O)ccc1O)C(C)(C)CCC2(C)C [UVI3003] | – | – | – | – | – | – | sensitive | sensitive | sensitive | sensitive | sensitive | sensitive | sensitive | efficiently suppress | suppress the growth | cell cycle, G1-S transition (H1975 [7]): inhibited G1-S transition; relative cell number after treatment (normal fibroblasts WI38): not sensitive; relative cell number after treatment (MDA-MB-468): sensitive; relative cell number after treatment (Saos2): not sensitive; relative cell number after treatment (H1755): sensitive; cell cycle, G1-S transition (PC931019 [8]): similarly sensitive; also recorded: inhibited G1-S transition; relative cell number after treatment ([5]; UVI3003 10 uM (FIG. 23), incl. gastric cancer): sensitive; relative cell number after treatment (SCLC): sensitive; relative cell number after treatment ([3]; UVI3003 10 uM (FIG. 23)): not sensitive
